According to patent US11884661B2, “3-substituted propionic acids as αV integrin inhibitors” (BRISTOL-MYERS SQUIBB COMPANY, priority 2016, dated 2024):

What follows are compounds tested against T1, human αVβ6 (Homo sapiens, UniProt P06756+P18564) (assay: human αVβ6 HTRF binding assay). Conditions: recombinant human αVβ6 integrin, FITC-conjugated fibronectin.
T1 construct: purchased R & D systems 3817-AV
Procedure, shortened: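 Biotinylated recombinant αVβ6 (1.25 nM final) incubated with FITC-fibronectin (5 nM) 1 h at RT, then streptavidin-terbium (0.625 nM) added and incubated overnight at RT in the dark before HTRF read. Buffer: 20 mM Tris pH 7.4, 1 mM MgCl2, 1 mM MnCl2, 0.01% Tween 20, 0.01% BSA.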

T1 sequence (P06756 31-992 limits assumed): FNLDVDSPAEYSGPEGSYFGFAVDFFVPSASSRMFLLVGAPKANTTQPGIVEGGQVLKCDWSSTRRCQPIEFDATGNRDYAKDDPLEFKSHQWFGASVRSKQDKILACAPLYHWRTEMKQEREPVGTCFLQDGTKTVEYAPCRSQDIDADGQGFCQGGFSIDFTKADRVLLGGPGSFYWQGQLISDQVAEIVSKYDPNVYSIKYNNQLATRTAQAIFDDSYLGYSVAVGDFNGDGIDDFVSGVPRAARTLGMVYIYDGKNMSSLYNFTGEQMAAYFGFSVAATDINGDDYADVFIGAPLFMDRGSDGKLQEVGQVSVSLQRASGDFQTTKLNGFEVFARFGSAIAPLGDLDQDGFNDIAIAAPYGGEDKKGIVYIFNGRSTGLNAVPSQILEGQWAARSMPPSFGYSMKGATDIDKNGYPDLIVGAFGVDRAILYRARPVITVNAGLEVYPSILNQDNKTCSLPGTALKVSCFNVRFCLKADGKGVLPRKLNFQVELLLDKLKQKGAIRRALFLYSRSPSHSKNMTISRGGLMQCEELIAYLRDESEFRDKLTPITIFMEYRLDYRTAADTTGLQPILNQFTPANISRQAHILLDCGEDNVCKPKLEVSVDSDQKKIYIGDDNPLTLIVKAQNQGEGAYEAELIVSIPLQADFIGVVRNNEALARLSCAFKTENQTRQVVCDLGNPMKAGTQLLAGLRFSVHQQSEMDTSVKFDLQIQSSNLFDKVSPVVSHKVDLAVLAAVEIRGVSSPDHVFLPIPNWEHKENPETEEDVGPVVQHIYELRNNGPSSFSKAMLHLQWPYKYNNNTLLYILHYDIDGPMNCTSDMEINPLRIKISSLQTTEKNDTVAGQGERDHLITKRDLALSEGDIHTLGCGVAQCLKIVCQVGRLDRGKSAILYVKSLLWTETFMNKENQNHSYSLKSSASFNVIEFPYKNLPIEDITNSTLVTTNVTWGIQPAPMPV
T1 sequence (P18564 22-707 limits assumed): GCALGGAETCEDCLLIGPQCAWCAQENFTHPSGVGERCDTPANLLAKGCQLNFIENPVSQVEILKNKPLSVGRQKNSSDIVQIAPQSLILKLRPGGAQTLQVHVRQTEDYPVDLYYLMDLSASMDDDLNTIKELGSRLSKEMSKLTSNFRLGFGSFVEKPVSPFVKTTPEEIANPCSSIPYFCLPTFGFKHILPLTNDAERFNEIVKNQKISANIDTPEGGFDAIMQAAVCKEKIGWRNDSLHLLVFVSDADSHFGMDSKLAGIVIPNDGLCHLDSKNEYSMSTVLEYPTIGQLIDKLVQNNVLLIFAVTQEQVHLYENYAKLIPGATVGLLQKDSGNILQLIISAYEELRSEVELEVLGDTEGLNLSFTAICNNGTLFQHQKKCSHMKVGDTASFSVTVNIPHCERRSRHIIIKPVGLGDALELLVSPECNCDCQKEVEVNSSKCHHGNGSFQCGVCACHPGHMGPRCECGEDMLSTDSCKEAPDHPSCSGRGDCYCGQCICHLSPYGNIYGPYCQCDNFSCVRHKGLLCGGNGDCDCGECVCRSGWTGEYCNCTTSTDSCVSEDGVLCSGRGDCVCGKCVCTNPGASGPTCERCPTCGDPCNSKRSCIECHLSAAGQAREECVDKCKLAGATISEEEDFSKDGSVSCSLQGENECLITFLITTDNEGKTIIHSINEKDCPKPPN

Question: For CN(C)c1ccc(C(CC(=O)O)c2nc(CCCc3ccc4c(n3)NCCC4)cs2)cn1 (single isomer, unassigned) [Example 133, 3-(6-(dimethylamino)pyridin-3-yl)-3-(4-(3-(5,6,7,8-tetrahydro-1,8-naphthyridin-2-yl)propyl)thiazol-2-yl)propanoic acid], which IC50 is on record?
Answer: 86 nM

Question: For CN(C)c1ccc(C(CC(=O)O)c2nc(CCCc3ccc4c(n3)NCCC4)cs2)cn1 (single isomer, unassigned) [Example 134, 3-(6-(dimethylamino)pyridin-3-yl)-3-(4-(3-(5,6,7,8-tetrahydro-1,8-naphthyridin-2-yl)propyl)thiazol-2-yl)propanoic acid], which IC50 is on record?
Answer: 1.8 nM

Question: How did the IC50 turn out when CN(C)C(=O)c1ccc(C(CC(=O)O)c2nc(CCCc3ccc4c(n3)NCCC4)cs2)cc1F (single isomer, unassigned) [Example 135, 3-(4-(dimethylcarbamoyl)-3-fluorophenyl)-3-(4-(3-(5,6,7,8-tetrahydro-1,8-naphthyridin-2-yl)propyl)thiazol-2-yl)propanoic acid] was run?
Answer: 4.9 nM

Question: With CN(C)C(=O)c1ccc(C(CC(=O)O)c2nc(CCCc3ccc4c(n3)NCCC4)cs2)cc1F (single isomer, unassigned) [Example 136, 3-(4-(dimethylcarbamoyl)-3-fluorophenyl)-3-(4-(3-(5,6,7,8-tetrahydro-1,8-naphthyridin-2-yl)propyl)thiazol-2-yl)propanoic acid] as the compound, how does the IC50 read?
Answer: 12 nM

Question: For CN(C)C(=O)c1ccc(C(CC(=O)O)c2nc(CCCc3ccc4c(n3)NCCC4)cs2)cc1 (single isomer, unassigned) [Example 137, 3-(4-(dimethylcarbamoyl)phenyl)-3-(4-(3-(5,6,7,8-tetrahydro-1,8-naphthyridin-2-yl)propyl)thiazol-2-yl)propanoic acid], which IC50 is on record?
Answer: 210 nM

Question: Which IC50 does the source give for CN(C)C(=O)c1ccc(C(CC(=O)O)c2nc(CCCc3ccc4c(n3)NCCC4)cs2)cc1 (single isomer, unassigned) [Example 138, 3-(4-(dimethylcarbamoyl)phenyl)-3-(4-(3-(5,6,7,8-tetrahydro-1,8-naphthyridin-2-yl)propyl)thiazol-2-yl)propanoic acid] here?
Answer: 4 nM

Question: For CN(C)C(=O)c1cccc(C(CC(=O)O)c2nc(CCCc3ccc4c(n3)NCCC4)cs2)c1 (single isomer, unassigned) [Example 139, 3-(3-(dimethylcarbamoyl)phenyl)-3-(4-(3-(5,6,7,8-tetrahydro-1,8-naphthyridin-2-yl)propyl)thiazol-2-yl)propanoic acid], which IC50 is on record?
Answer: 34 nM

Question: How did the IC50 turn out when CN(C)C(=O)c1cccc(C(CC(=O)O)c2nc(CCCc3ccc4c(n3)NCCC4)cs2)c1 (single isomer, unassigned) [Example 140, 3-(3-(dimethylcarbamoyl)phenyl)-3-(4-(3-(5,6,7,8-tetrahydro-1,8-naphthyridin-2-yl)propyl)thiazol-2-yl)propanoic acid] was run?
Answer: 3.7 nM

Question: For COc1ccc(C(CC(=O)O)c2nc(CCCc3ccc4c(n3)NCCC4)cs2)cc1OC (single isomer, unassigned) [Example 141, 3-(3,4-dimethoxyphenyl)-3-(4-(3-(5,6,7,8-tetrahydro-1,8-naphthyridin-2-yl)propyl)thiazol-2-yl)propanoic acid], which IC50 is on record?
Answer: 2.9 nM

Question: How did the IC50 turn out when COc1ccc(C(CC(=O)O)c2nc(CCCc3ccc4c(n3)NCCC4)cs2)cc1OC (single isomer, unassigned) [Example 142, 3-(3,4-dimethoxyphenyl)-3-(4-(3-(5,6,7,8-tetrahydro-1,8-naphthyridin-2-yl)propyl)thiazol-2-yl)propanoic acid] was run?
Answer: 37 nM

Question: How did the IC50 turn out when COc1ncc(C(CC(=O)O)c2nc(CCCCc3ccc4c(n3)NCCC4)cs2)cn1 (single isomer, unassigned) [Example 143, 3-(2-Methoxypyrimidin-5-yl)-3-(4-(4-(5,6,7,8-tetrahydro-1,8-naphthyridin-2-yl)butyl)thiazol-2-yl)propanoic acid] was run?
Answer: 88 nM

Question: How did the IC50 turn out when COc1ncc(C(CC(=O)O)c2nc(CCCCc3ccc4c(n3)NCCC4)cs2)cn1 (single isomer, unassigned) [Example 144, 3-(2-Methoxypyrimidin-5-yl)-3-(4-(4-(5,6,7,8-tetrahydro-1,8-naphthyridin-2-yl)butyl)thiazol-2-yl)propanoic acid] was run?
Answer: 7 nM

Question: Which IC50 does the source give for COc1ncc(C(CC(=O)O)c2nc(CCCc3ccc4c(n3)NCCC4)cs2)cn1 (single isomer, unassigned) [Example 146, 3-(2-methoxypyrimidin-5-yl)-3-(4-(3-(5,6,7,8-tetrahydro-1,8-naphthyridin-2-yl)propyl)thiazol-2-yl)propanoic acid] here?
Answer: 140 nM

Question: With Cc1ncc(C(CC(=O)O)c2nc(CCCc3ccc4c(n3)NCCC4)cs2)cn1 (single isomer, unassigned) [Example 147, 3-(2-methylpyrimidin-5-yl)-3-(4-(3-(5,6,7,8-tetrahydro-1,8-naphthyridin-2-yl)propyl)thiazol-2-yl)propanoic acid] as the compound, how does the IC50 read?
Answer: 1.9 nM

Question: Cc1ncc(C(CC(=O)O)c2nc(CCCc3ccc4c(n3)NCCC4)cs2)cn1 (single isomer, unassigned) [Example 148, 3-(2-methylpyrimidin-5-yl)-3-(4-(3-(5,6,7,8-tetrahydro-1,8-naphthyridin-2-yl)propyl)thiazol-2-yl)propanoic acid] was tested. Which IC50 did it give?
Answer: 6 nM

Question: How did the IC50 turn out when Cc1ncc(C(CC(=O)O)c2nc(CCCc3ccc4c(n3)NCCC4)cs2)cn1 (single isomer, unassigned) [Example 149, 3-(2-methylpyrimidin-5-yl)-3-(4-(3-(5,6,7,8-tetrahydro-1,8-naphthyridin-2-yl)propyl)thiazol-2-yl)propanoic acid] was run?
Answer: 7.2 nM

Question: For Cc1cncc(C(CC(=O)O)c2nc(CCCc3ccc4c(n3)NCCC4)cs2)c1 (single isomer, unassigned) [Example 150, 3-(5-methylpyridin-3-yl)-3-(4-(3-(5,6,7,8-tetrahydro-1,8-naphthyridin-2-yl)propyl)thiazol-2-yl)propanoic acid], which IC50 is on record?
Answer: 87 nM

Question: How did the IC50 turn out when Cc1cncc(C(CC(=O)O)c2nc(CCCc3ccc4c(n3)NCCC4)cs2)c1 (single isomer, unassigned) [Example 151, 3-(5-methylpyridin-3-yl)-3-(4-(3-(5,6,7,8-tetrahydro-1,8-naphthyridin-2-yl)propyl)thiazol-2-yl)propanoic acid] was run?
Answer: 2.6 nM

Question: How did the IC50 turn out when COc1ccc(C(CC(=O)O)c2csc(CCCc3ccc4c(n3)NCCC4)n2)cc1F (single isomer, unassigned) [Example 152, 3-(3-fluoro-4-methoxyphenyl)-3-(2-(3-(5,6,7,8-tetrahydro-1,8-naphthyridin-2-yl)propyl)thiazol-4-yl)propanoic acid] was run?
Answer: 180 nM

Question: With COc1ccc(C(CC(=O)O)c2nc(CCCC3CCc4cccnc4N3)cs2)cn1 (single isomer, unassigned) [Example 154, 3-(6-methoxypyridin-3-yl)-3-(4-(3-(1,2,3,4-tetrahydro-1,8-naphthyridin-2-yl)propyl)thiazol-2-yl)propanoic acid] as the compound, how does the IC50 read?
Answer: 210 nM

Question: COc1ccc(C(CC(=O)O)c2nc(CCCC3CCc4cccnc4N3)cs2)cn1 (single isomer, unassigned) [Example 155, 3-(6-methoxypyridin-3-yl)-3-(4-(3-(1,2,3,4-tetrahydro-1,8-naphthyridin-2-yl)propyl)thiazol-2-yl)propanoic acid] was tested. Which IC50 did it give?
Answer: 8.1 nM

Question: Which IC50 does the source give for COc1ccc(C(CC(=O)O)c2nc(CCCC3CCc4cccnc4N3)cs2)cn1 (single isomer, unassigned) [Example 156, 3-(6-methoxypyridin-3-yl)-3-(4-(3-(1,2,3,4-tetrahydro-1,8-naphthyridin-2-yl)propyl)thiazol-2-yl)propanoic acid] here?
Answer: 260 nM

Question: How did the IC50 turn out when COc1ccc(C(CC(=O)O)c2nc(CCCC3CCc4cccnc4N3)cs2)cn1 (single isomer, unassigned) [Example 157, 3-(6-methoxypyridin-3-yl)-3-(4-(3-(1,2,3,4-tetrahydro-1,8-naphthyridin-2-yl)propyl)thiazol-2-yl)propanoic acid] was run?
Answer: 27 nM

Question: Which IC50 does the source give for COc1ccc(C(CC(=O)O)c2nc(CCCC3CCc4cccnc4N3)cs2)cc1F (single isomer, unassigned) [Example 158, 3-(3-fluoro-4-methoxyphenyl)-3-(4-(3-(1,2,3,4-tetrahydro-1,8-naphthyridin-2-yl)propyl)thiazol-2-yl)propanoic acid] here?
Answer: 7 nM

Question: How did the IC50 turn out when COc1ccc(C(CC(=O)O)c2nc(CCCC3CCc4cccnc4N3)cs2)cc1F (single isomer, unassigned) [Example 159, 3-(3-fluoro-4-methoxyphenyl)-3-(4-(3-(1,2,3,4-tetrahydro-1,8-naphthyridin-2-yl)propyl)thiazol-2-yl)propanoic acid] was run?
Answer: 370 nM

Question: With COc1ccc(C(CC(=O)O)c2nc(CCCC3CCc4cccnc4N3)cs2)cc1F (single isomer, unassigned) [Example 160, 3-(3-fluoro-4-methoxyphenyl)-3-(4-(3-(1,2,3,4-tetrahydro-1,8-naphthyridin-2-yl)propyl)thiazol-2-yl)propanoic acid] as the compound, how does the IC50 read?
Answer: 195 nM

Question: For COc1ccc(C(CC(=O)O)c2nc(CCCC3CCc4cccnc4N3)cs2)cc1F (single isomer, unassigned) [Example 161, 3-(3-fluoro-4-methoxyphenyl)-3-(4-(3-(1,2,3,4-tetrahydro-1,8-naphthyridin-2-yl)propyl)thiazol-2-yl)propanoic acid], which IC50 is on record?
Answer: 12 nM

Question: For Cc1cc(C)n(C(CC(=O)O)c2nc(CCCc3ccc4c(n3)NCCC4)cs2)n1 (single isomer, unassigned) [Example 162, 3-(3,5-dimethyl-1H-pyrazol-1-yl)-3-(4-(3-(5,6,7,8-tetrahydro-1,8-naphthyridin-2-yl)propyl)thiazol-2-yl)propanoic acid], which IC50 is on record?
Answer: 71 nM

Question: With Cc1cc(C)n(C(CC(=O)O)c2nc(CCCc3ccc4c(n3)NCCC4)cs2)n1 (single isomer, unassigned) [Example 163, 3-(3,5-dimethyl-1H-pyrazol-1-yl)-3-(4-(3-(5,6,7,8-tetrahydro-1,8-naphthyridin-2-yl)propyl)thiazol-2-yl)propanoic acid] as the compound, how does the IC50 read?
Answer: 220 nM
